{"source": "patent US20220111034A1", "about": "“VIRUS COMPOSITIONS” (priority 2019, published 2022)", "key": {"Mice": {"tested_on": "Mice", "experiment": "Infection of mice by reovirus (Example 7)", "format": "in vivo", "conditions": "co-administered with the virus"}, "[1]": {"tested_on": "JAM-A on Lec2-JAM-A cells", "experiment": "FD-based AFM with virus-functionalized tip on living Lec2-JAM-A cells, with glycan addition", "format": "cell-based, human", "conditions": "for T3SA+ adhesion events in the high force range (400 to 500 pN) / T3SA+ binding frequency after glycan injection / T3SA+ binding frequency before glycan injection: Lec2-JAM-A cells; for T3SA+ adhesion events in the high force range (400 to 500 pN): FIG. 8; for T3SA+ binding frequency after glycan injection / T3SA+ binding frequency before glycan injection: FIG. 9; for T3SA+ binding frequency before glycan injection: baseline of the same experiment", "description": "Engineering and characterization of cell lines expressing JAM-A. Monolayers of CHO (ATCC, #CCL-61) and Lec2 (ATCC, #CRL-1736) cells were transduced with lentiviruses encoding a puromycin resistance gene and human JAM-A or a puromycin resistance gene alone. Transduced cells were selected for puromycin resistance by passaging twice in medium containing 20 μg ml^−1 puromycin. The concentration of puromycin used was the minimal concentration that yielded complete death of non-transduced CHO and Lec2 cells. Following selection for puromycin resistance, cells were further selected for cell surface expression of JAM-A using fluorescence-activated cell sorting (FACS). Cell-surface expression of JAM-A was detected using the monoclonal antibody, J10.4 (Liu et al. Human junction adhesion molecule regulates tight junction resealing in epithelia. J. Cell Sci. 2000, vol. 113, 2363-2374), and a fraction of cells with high JAM-A expression was collected and propagated using puromycin selection. In the ensuing Examples, cells transduced and selected for puromycin resistance alone will be referred to as CHO and Lec2 and those selected for puromycin resistance and JAM-A expression will be referred to as CHO-JAM-A and Lec2-JAM-A, respectively.\nCorrelative images were acquired on an AFM (Bioscope Catalyst and Bioscope Resolve, Bruker) operated in the PeakForce QNM mode (Nanoscope software v9.2) to conduct FD-based AFM and coupled to an inverted epifluorescence microscope (Zeiss Observer Z.1) as described (Newton et al. 2017, supra; Knoops et al. Specific Interactions Measured by AFM on Living Cells between Peroxiredoxin-5 and TLR4: Relevance for Mechanisms of Innate Immunity. Cell chemical biology 2018, vol. 25, 550-559, e553). A 40× oil objective (NA=0.95) was used. The AFM was equipped with a 150 μm piezoelectric scanner and a cell culture chamber allowing to control the temperature, the humidity and the CO2 concentration as described (Alsteens et al. 2017, supra). Overview images of cell surfaces (20-30 μm^2) were recorded at imaging forces of ˜500 pN using PFQNM-LC probes (Bruker) having tip lengths of 17 μm, tip radii of 65 nm, and opening angles of 15°. All fluorescence microscopy and FD-based AFM imaging experiments were conducted under cell culture conditions using the combined AFM and fluorescence microscopy chamber (FIG. 1a) at 37° C. in either Mem a, nucleosides or Ham's F12 culture medium, depending on the cell type. A gas mixture of synthetic air with 5% CO2 at 95% relative humidity using a gas humidifier membrane (PermSelect silicone) was infused at 0.1 L min^−1 into the microscopy chamber. The humidity was controlled using a humidity sensor (Sensirion). Cantilevers were first calibrated using the thermal noise method (Huffer & Bechhoefer. Calibration of atomic-force microscope tips. Review of Scientific Instruments 1993, vol. 64, 1868-1873), yielding values ranging from 0.095 to 0.135 N m^−1 for PFQNM-LC probes. The AFM tip was oscillated in a sinusoidal fashion at 0.25 kHz with a 750 nm amplitude in the PeakForce Tapping mode. The sample was scanned using a frequency of 0.125 Hz and 256 pixels per line (256 lines). AFM images and FD curves were analyzed using the Nanoscope analysis software (v1.7, Bruker), Origin, and ImageJ (v1.52e). Individual FD curves detecting unbinding events between the virus and cell surface were analyzed using the Nanoscope analysis and Origin software. The baseline of the retraction curve was corrected using a linear fit on the last 30% of the retraction curve. Using the force-time curve, the loading rate (slope) of each rupture event was determined (FIG. 1c). Optical images were analyzed using Zen Blue software (Zeiss) (Alsteens et al. 2017, Newton et al. 2017, Delguste et al. 2018a, Delguste et al. 2018b, all supra).\nThe live cell experiments were conducted in the same manner as described above by scanning a suitable field of cells, followed by adding 1 mM of the respective glycan to the culture medium. […]"}, "[2]": {"tested_on": "Lec2, Lec2-JAM-A, CHO and CHO-JAM-A cells", "experiment": "Infection of in vitro cultured cells by reovirus (Example 6)", "format": "cell-based", "conditions": "co-administered with the virus; for effect on infectivity of T3SA+ towards Lec2-JAM-A and CHO-JAM-A: compared to T3SA+ without glycan", "description": "T3SA+ and T3SA− reovirus stocks are prepared and purified virions obtained as set forth in Example 1. Lec2, Lec2-JAM-A, CHO and CHO-JAM-A cells are prepared and cultured as set forth in Example 1.\nThe cells are infected with the reovirus at a suitable multiplicity of infection (MOI) in batch suspensions or in monolayers and infectivity is analysed by an appropriate assay, such as quantification of viral protein expression in infected cells or a plaque assay."}, "[3]": {"tested_on": "cocultured CHO-JAM-A and Lec2-JAM-A cells", "experiment": "Single particle tracking by dynamic confocal microscopy", "format": "cell-based", "description": "A coculture of Lec2-JAM-A mCherry and CHO-JAM-A cells was seeded onto a 47-mm glass-bottomed petri dish (WillCo Wells) 1 or 2 d before the experiment to ensure formation of a confluent monolayer on the day of the experiment. Cells were imaged by laser scanning confocal microscopy using a Zeiss LSM 880 microscope with a 561 nm laser for mCherry and a 488 nm laser for Alexa488 and a 40× oil objective (NA=0.95). All experiments were conducted at room temperature with cells maintained in Ham's F12 culture medium and a gas mixture of synthetic air with 5% CO2 at 95% relative humidity that was infused at 0.1 L min^−1 into the microscopy chamber using a gas humidifier membrane (PermSelect silicone). The humidity was controlled using a humidity sensor (Sensirion). To ensure virus binding (and not internalization), the cells were placed on ice for 30 min before starting the experiment. After finding an area in which both cell types were adjacent (guided by fluorescence), Alexa488-labelled T3SA+ or T3SA− viruses (10^12 particles/mL) diluted in either F12 Ham's culture medium or 1 mM Neu5Ac solution (on ice) were added to the living cells. The fluorescent signal from both dyes (mCherry and Alexa488) as well as the signal from the PMT channel was recorded for a ˜30 min interval immediately after virus injection at a frame-rate of one image every 13.32 seconds. During recording, the focus was kept constant on the upper surface of cells. Fluorescence images were exported as 12-bit TIFF files, merged into a movie, and further processed using ImageJ (National Institutes of Health, Bethesda). Trajectories were harvested and analyzed using MTrackJ, an ImageJ plugin to track moving viral particles in the movie and obtain track statistics. The latter were further processed using Origin."}}, "data": [{"molecule": "CC(=O)N[C@H]1[C@H](O[C@H]2[C@@H](O)[C@@H](CO)O[C@@H](O[C@H]3[C@H](O)[C@@H](O)C(O)O[C@@H]3CO)[C@@H]2O)O[C@H](CO)[C@@H](O[C@@H]2O[C@H](CO)[C@H](O)[C@H](O)[C@H]2O)[C@@H]1O", "note": "(mixture of isomers) [LNnT, lacto-N-neotetraose, reference compound]", "values": [{"measurement": "effect on infectivity of T3SA+ in mice", "setting": "Mice", "value": "does not affect infectivity"}, {"measurement": "T3SA+ adhesion events in the high force range (400 to 500 pN)", "setting": "[1]; 1 mM glycan", "value": "no significant change"}, {"measurement": "T3SA+ binding frequency after glycan injection", "setting": "[1]; 1 mM glycan", "value": 3.9, "unit": "%"}, {"measurement": "T3SA+ binding frequency before glycan injection", "setting": "[1]", "value": 3.8, "unit": "%"}, {"measurement": "effect on infectivity of T3SA+ towards Lec2-JAM-A and CHO-JAM-A", "setting": "[2]", "value": "does not affect infectivity"}]}, {"molecule": "sialyl-lacto-N-tetraose a [LSTa]", "values": [{"measurement": "effect on infectivity of T3SA+ in mice", "setting": "Mice", "value": "significantly increase infectivity"}, {"measurement": "effect on infectivity of T3SA− in mice", "setting": "Mice", "value": "do not affect infectivity"}, {"measurement": "T3SA+ adhesion events in the high force range (400 to 500 pN)", "setting": "[1]; 1 mM glycan", "value": "more adhesion events in the high force range"}, {"measurement": "T3SA+ binding frequency after glycan injection", "setting": "[1]; 1 mM glycan", "value": 4.8, "unit": "%"}, {"measurement": "T3SA+ binding frequency before glycan injection", "setting": "[1]", "value": 3.8, "unit": "%"}, {"measurement": "effect on infectivity of T3SA− towards Lec2-JAM-A or CHO-JAM-A", "setting": "[2]", "value": "do not affect infectivity"}, {"measurement": "effect on infectivity of T3SA+ towards Lec2-JAM-A and CHO-JAM-A", "setting": "[2]", "value": "significantly increase infectivity"}]}, {"molecule": "CC(=O)N[C@H]1[C@H]([C@H](O)[C@H](O)CO)OC(O)(C(=O)O)C[C@@H]1O", "note": "(stereo partly drawn) [Neu5Ac, N-acetylneuraminic acid]", "values": [{"measurement": "number of T3SA+ particles bound to CHO-JAM-A cells", "setting": "[3]; 1 mM free SA, FIG. 10g", "value": "significantly increased"}, {"measurement": "diffusion potential of T3SA+ particles on the cell surface", "setting": "[3]; 1 mM glycan injected with viral particles, FIG. 10f", "value": "significant decrease of their diffusion potential"}, {"measurement": "effect of free SA on diffusion and bound particles of T3SA−", "setting": "[3]; 1 mM, FIG. 10g", "value": "this effect was not observed"}, {"measurement": "effect on infectivity of T3SA+ in mice", "setting": "Mice", "value": "significantly increase infectivity"}, {"measurement": "effect on infectivity of T3SA− in mice", "setting": "Mice", "value": "do not affect infectivity"}, {"measurement": "T3SA+ adhesion events in the high force range (400 to 500 pN)", "setting": "[1]; 1 mM glycan", "value": "more adhesion events in the high force range"}, {"measurement": "T3SA+ binding frequency after glycan injection", "setting": "[1]; 1 mM glycan", "value": 4.9, "unit": "%"}, {"measurement": "T3SA+ binding frequency before glycan injection", "setting": "[1]", "value": 3.9, "unit": "%"}, {"measurement": "T3SA+ adhesion events in the high force range after neuraminidase treatment", "setting": "[1]; NA-treated cells, 1 mM glycan, FIG. 17", "value": "more adhesion events in the high force range"}, {"measurement": "increase in T3SA+ binding after glycan injection on neuraminidase-treated cells", "setting": "[1]; neuraminidase 40 mUnit/mL for 1 h, then 1 mM glycan", "value": "~20", "unit": "%"}, {"measurement": "effect on infectivity of T3SA− towards Lec2-JAM-A or CHO-JAM-A", "setting": "[2]", "value": "do not affect infectivity"}, {"measurement": "effect on infectivity of T3SA+ towards Lec2-JAM-A and CHO-JAM-A", "setting": "[2]", "value": "significantly increase infectivity"}]}]}
